We go through five compounds from patent publication US12691100B2, “NMT inhibitor treatment of a senescence-associated disease or disorder of the liver” (Imperial College Innovations Limited, priority 2020, dated 2026).

SMILES strings stand for the structures.

For data set [1] the following is noted: literature: Wilson, O'Connor et al. 2010; cited from earlier work.
Another data set deals with IMR90 ER:RAS cells. As to the kind of experiment: Senolytic activity under IRE1 inhibition with KIRA6. The format is cell-based, human. As to conditions: 600 nM KIRA6 from day 4 post-induction; Compound 1 or 2 from day 7; read at day 12; FIGS. 15A-B. The procedure:
High-throughput microscopy survival assay—To assess senolytic effect of drugs, cells were cultured for 7 days, culture media was changed to DM0.5 media and drugs in DMSO were added (<5% v/v final concentration), drugs were replenished after 3 days if assay length was longer than 72 h. Wells were fixed in 4% PFA for 1 hour at day 10 to 14, washed 3 times with PBS and then stained with 1 μg/mL DAPI (w/v, PBS) for 10 minutes. Wells were then washed 3 times with PBS. Optionally plates could be stored at 4° C. for up to 2 weeks and DAPI stained. Image acquisition of DAPI stained cells was performed on an automated InCell Analyser 2000 (GE Healthcare®) and high-content analysis on the InCell Investigator 2.7.3 software used to quantify number of DAPI positive cells per well. A top-hat method was used to segment cell-nuclei based on DAPI stained area and a minimum nuclear area threshold of 80 μm used to exclude debris. For cancer cell lines, nuclear area threshold was reduced to 40 μm. Survival was measured as cell counts relative to DMSO treated quiescent or senescent cells.
To investigate whether the activation of UPR caused by NMT inhibition in senescent cells was responsible for the senolytic potential of NMT inhibitors, cells were treated with KIRA6, a selective inhibitor of IRE1, a kinase necessary for the UPR. IMR90 ER:RAS cells undergoing senescence (after induction with 4OHT), were treated with 600 nM KIRA6 (an IRE1 inhibitor) on day 4 post-induction. On day 7 post-induction, cells were treated with Compound 1 or 2 and 600 nM KIRA6. […] Both NMT inhibitor and Kira6 were replenished 3 days after addition of NMT inhibitor (at day 10 post-induction). Data is shown as mean±SD, n represents independent biological experiments.

Another data set concerns HCT116. Briefly: Senescence induction by chemotherapeutic drugs (BrdU, SA-β-Galactosidase, p21CIP1). The format is cell-based, human. Conditions: 7 days after treatment, doxorubicin 100 nM, etoposide 2 μM, cisplatin 100 μM; for BrdU incorporation (cell division): FIG. 6A; for SA-β-Galactosidase activity / p21^CIP1 expression: FIGS. 6B-C. On the procedure:
(§1) IMR90 cells were used to generate inducible ER:RAS (hereinafter iRAS) cells to model Oncogene induced senescence (OIS), through retroviral infection of pLNC-ER:RAS-neo into IMR90 cells followed by selection with Neomycin. IMR90 cells containing the pLNC-ER:RAS plasmid backbone pLXSN were infected in parallel to assess leakiness in the pLNC-ER:RAS system. Treatment with 100 nM 4OHT (Sigma, in DMSO) was used to induce IMR90 ER:RAS cells to undergo oncogene induced senescence (OIS). Therapy induced senescence (TIS) was induced in IMR90 cells by treatment with 33 μM (50 ug/ml) bleomycin sulphate (Generon, HY-17565) for 24 hours, 20 μM palbociclib (Selleckchem, S1116) for 7 days or 100 nM doxorubicin (Cayman chemical, 15007) for 7 days. Senescence was induced in SK-HEP-1 cells by treatment with 2 μM etoposide (Sigma-Aldrich, E1383) for 7 days (FIGS. 4A-C). HCT-116 senescence was induced by 250 nM treatment with doxorubicin (Cayman chemical, 15007) for 48 hours followed by 5 days culture in media without chemotherapy (FIG. 5), or by treatment with 100 nM doxorubicin, 2 μM etoposide or 100 μM cisplatin for 3 days followed by 4 days culture in media without chemotherapy (FIGS. 6A-7C). Senescence was induced in MCF7 by 200 nM treatment with doxorubicin for 7 days, 2 μM etoposide for 7 days or 10 μM cisplatin for 7 days (FIGS. 8A-9C).
(§2) BrdU Incorporation—Cell proliferation was assessed through incorporation of nucleotide analogue 5-Bromo-2′-deoxyuridine (BrdU) into cells. 2×10^3 or 8×10^3 IMR90 cells were seeded into 96-well plates in duplicate for DMSO/palbociclib treated and bleomycin/doxorubicin treated cells respectively. 10 μM BrdU was added to cells 18 h before desired time point and wells were then washed in PBS and fixed using 4% paraformaldehyde (w/v, PBS) for 45 minutes to 1 hour before removal and washing 3 times with PBS. BrdU incorporation was assessed via immunofluorescence and high-content analysis (see section ‘Immunofluorescence & High throughput microscopy’).
(§3) Immunofluorescence staining was carried out by first fixing wells of 96 well plate at desired timepoint for 1 hour using 4% PFA (w/v, in PBS) followed by washing 3 times with PBS. Wells were then permeabilized using 0.2% Triton® X-100 (v/v, PBS) for 10 min or with 0.5% Triton® X-100 (v/v, PBS) for COPI staining. Wells were then washed twice with PBS to halt permeabilization and then non-specific antibody binding blocked by incubation with a blocking solution for 1 hour at RT. Blocking solution contained 1% BSA (w/v, PBS) supplemented with 0.4% Fish Skin Gelatin (v/v, PBS). Primary antibodies were diluted in respective blocking solution (see ‘Antibodies’ for dilutions), blocking solution removed from well and incubated with primary antibody solution for 1 hour at RT. For BrdU staining primary antibody solution is supplemented with 0.5 U/ul DNase (Sigma) and 1 mM MgCl2 and incubation times reduced to 30 minutes. Following incubation, primary antibody was then removed by washing 3 times with PBS. Secondary antibodies conjugated to Alexa-594 or Alexa-488 fluorophores were then diluted in blocking solution added to wells to be incubated in dark for 1 hour. Secondary antibody was then removed by washing 3 times with PBS and nuclei counterstaining with 1 μg/mL DAPI (w/v, PBS) for 10 minutes. Wells were then washed with PBS three times.
In a second experiment, HCT116 were treated with doxorubicin, etoposide or cisplatin (to induce senescence) or DMSO (as a control). 7 days after treatment, BrdU incorporation (to assess cell division), SA-β-Galactosidase activity and p21^CIP1 expression (as markers of senescence) were analysed. […] Media and compounds were replenished after 72 h of treatment and cultured for 48 h more before fixation and measurement of survival via high-throughput microscopy. DMSO/Doxorubicin/Etoposide (n=4), Cisplatin (n=1).
On the technique in general: Uptake of a labelled nucleoside into DNA is a usual measure of proliferation.

A further data set deals with MCF7 cancer cells. Described as above. The format is cell-based. As to conditions: 7 days after treatment, doxorubicin 200 nM, etoposide 2 μM, cisplatin 10 μM; for BrdU incorporation (cell division): FIG. 8A; for SA-β-Galactosidase activity / p21^CIP1 expression: FIGS. 8B-C. On the procedure:
as §1, §2, §3
MCF7 cancer cells were treated with doxorubicin, etoposide or cisplatin (to induce senescence) or DMSO (as a control). 7 days after treatment, analysed BrdU incorporation (to assess cell division), SA-β-Galactosidase activity and p21^CIP1 expression (as markers of senescence) were analysed. […] Media and compounds were replenished after 72 h of treatment and cultured for 48 h more before fixation and measurement of survival via high-throughput microscopy. DMSO/Doxorubicin/Etoposide (n=3), Cisplatin (n=2).

As to `CC1(C)CCC(c2ccc(Cl)cc2)=C(CN2CCN(c3ccc(C(=O)NS(=O)(=O)c4ccc(N[C@H](CCN5CCOCC5)CSc5ccccc5)c(S(=O)(=O)C(F)(F)F)c4)cc3)CC2)C1` [ABT-263], the Side effects result in data set [1] is “significant neutropenia and thrombocytopenia”.

As to `CC(C)(C)c1nc(-c2ccc(NC(=O)Nc3cccc(C(F)(F)F)c3)c3ccccc23)c2c(N)nccn12` [KIRA6, reference compound], in the data set with IMR90 ER:RAS cells, the “Effect of KIRA6 on the senolytic activity of NMT inhibitors” value was “prevented the senolytic activity of NMT inhibitors”.

As for `N.N.[Cl][Pt][Cl]` [cisplatin], in the data set on HCT116, the “BrdU incorporation (cell division)” value is listed as “stopped proliferating”, the SA-β-Galactosidase activity entry is listed as “upregulated” and the “p21^CIP1 expression” value is on record as “upregulated”. In the data set on MCF7 cancer cells, the “BrdU incorporation (cell division)” value is on record as “stopped proliferating”, the SA-β-Galactosidase activity result was “upregulated” and the “p21^CIP1 expression” value is recorded as “upregulated”.

Turning to `COc1cccc2c1C(=O)c1c(O)c3c(c(O)c1C2=O)C[C@@](O)(C(=O)CO)C[C@@H]3O[C@H]1C[C@H](N)[C@H](O)[C@H](C)O1` [doxorubicin], in the data set on HCT116, the “BrdU incorporation (cell division)” value is given as “stopped proliferating”, the SA-β-Galactosidase activity result is listed as “upregulated” and the “p21^CIP1 expression” value was “upregulated”. Moreover, in the data set with MCF7 cancer cells, the “BrdU incorporation (cell division)” value is “stopped proliferating”, the SA-β-Galactosidase activity result is reported as “upregulated” and the “p21^CIP1 expression” value was “upregulated”.

In the case of `COc1cc([C@@H]2c3cc4c(cc3[C@@H](O[C@@H]3O[C@@H]5CO[C@@H](C)O[C@H]5[C@H](O)[C@H]3O)[C@H]3COC(=O)[C@H]23)OCO4)cc(OC)c1O` [etoposide], in the data set with HCT116, the “BrdU incorporation (cell division)” value is on record as “stopped proliferating”, the SA-β-Galactosidase activity result is “upregulated” and the “p21^CIP1 expression” value is reported as “upregulated”. Moreover, in the data set with MCF7 cancer cells, the “BrdU incorporation (cell division)” value was “stopped proliferating”, the SA-β-Galactosidase activity result is “upregulated” and the “p21^CIP1 expression” value is “upregulated”.
